Measured values as given in patent publication US12186332B2, “Methods for overcoming WNT/beta-catenin anti-cancer resistance in leukemia stem cells” (STOWERS INSTITUTE FOR MEDICAL RESEARCH, priority 2019, dated 2025).

Tests used:
[1] = system: β-catenin binding of the Cd24a gene locus; assay: ChIP-qPCR in Ctnnb1-3xFlag mouse ES cells; type: cell-based; details: 4 hours
Procedure: The Ctnnb1-3×Flag mouse ES cell line was provided by Andrew McMahon (University of Southern California) and routinely passaged and maintained on irradiated MEF feeder in conventional ES cell medium supplemented with […] and […] Hygromycin B. Cells were adapted and expanded to serum free 2i culture for experiments. For serum-free 2i culture, ES cells were cultured without serum in the N2B27 medium: neurobasal medium(Invitrogen 21103-049), DMEM/F12 (Invitrogen 10565-018), 0.5×N2 (Invitrogen 17502-048), 0.5×B27 (Invitrogen 17504044), 1×b-mercaptoethanol(Millipore ES-007-E), 2 mM Lglutamine(Invitrogen 25030081), […] non-essential amino acid(NEAA)(SCT 07600), 0.033% BSA(Invitrogen 15260037), […] CHIRON(Tocris 4423), […] PD03 (SCT72184).
A total of 2×10^7 ES cells were used per ChIP assay. Cells were washed with 1×PBS and crosslinked with 1% paraformaldehyde for 10 min at RT and quenched with 1 ml 2.5M glycine. Cells were washed with cold PBS three times and resuspended in […] lysis buffer (15 mM HEPES at pH 7.5, 140 mM NaCl, 1 mM EDTA, 0.5 mM EGTA, 1% Triton X100, 0.1% sodium deoxycholate, 1% SDS, 0.5% N-lauroylsarcosine). […] ChIP-qPCR was performed with Fast SYBR™ Green Master Mix (Thermo Fisher Scientific 4385612) and analyzed with the Student's t-test.

[2] = biological target: T1, Akt:β-catenin interaction (EGFP-AKT and mCherry-β-catenin) (Mus musculus, UniProt Q02248); assay: FRET assay (acceptor photobleaching), 293T cells; type: cell-based
T1 construct: host or cells: 293T cells
T1 sequence (Q02248 1-781): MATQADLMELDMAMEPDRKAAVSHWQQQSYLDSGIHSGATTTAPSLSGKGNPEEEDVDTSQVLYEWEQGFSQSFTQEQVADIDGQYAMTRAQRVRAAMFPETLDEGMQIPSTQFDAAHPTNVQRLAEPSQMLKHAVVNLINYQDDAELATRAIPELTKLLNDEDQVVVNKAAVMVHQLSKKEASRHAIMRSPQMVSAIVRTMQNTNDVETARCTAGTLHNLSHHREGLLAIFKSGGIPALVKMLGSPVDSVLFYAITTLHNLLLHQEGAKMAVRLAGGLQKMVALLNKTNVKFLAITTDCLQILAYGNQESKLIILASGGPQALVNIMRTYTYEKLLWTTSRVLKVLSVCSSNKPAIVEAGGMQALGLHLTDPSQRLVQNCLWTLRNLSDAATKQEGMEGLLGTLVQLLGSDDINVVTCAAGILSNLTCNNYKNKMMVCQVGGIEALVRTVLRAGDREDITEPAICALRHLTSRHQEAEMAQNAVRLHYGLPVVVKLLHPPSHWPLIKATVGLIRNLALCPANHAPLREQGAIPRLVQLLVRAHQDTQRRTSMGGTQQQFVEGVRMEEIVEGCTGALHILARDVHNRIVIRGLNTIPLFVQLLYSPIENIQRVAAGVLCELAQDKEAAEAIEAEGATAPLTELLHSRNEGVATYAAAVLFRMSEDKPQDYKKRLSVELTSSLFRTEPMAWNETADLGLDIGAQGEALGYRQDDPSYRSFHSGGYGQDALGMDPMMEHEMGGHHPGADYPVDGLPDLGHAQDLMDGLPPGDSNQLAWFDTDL
Procedure: Cells transfected with EGFP-AKT and mCherry-β-catenin were treated with vehicle or Doxorubicin at the indicated concentrations and FRET efficiency was determined.
FIG. 7C provides the FRET verification between Akt and β-catenin.
FRET measurement was performed by using the acceptor photobleaching method. Briefly, 293T cells were transfected with EGFP-AKT and mCherry-β-catenin (Addgene, #39531, #55001). A Perkin-Elmer Ultraview spinning disc system with a CSU-X1 Yokogawa disc was used for imaging. A 40×1.2 NA Plan-apochromatic objective was used, and emission was collected onto a C9100 Hamamatsu Photonics EM-CCD. EGFP was excited with a 488 nm laser, and emission was collected through a 500-555 nm band pass filter. mCherry was illuminated, and photobleached, with a 561 nm laser. Emission of mCherry was collected with a 580-650 nm band pass filter. 6 images of EGFP were acquired before and 8 images after bleaching of the mCherry with intense 561 nm light. After subtraction of camera background, the average intensity of EGFP in a region of interest spanning the bleached cell was determined in the 4 images before acceptor bleach (I1), or the 4 images after acceptor bleach (12). FRET efficiency is reported as 1−(I1/I2). Calculations were based on >500 cell images.

## COc1cccc2c1C(=O)c1c(O)c3c(c(O)c1C2=O)C[C@@](O)(C(=O)CO)C[C@@H]3O[C@H]1C[C@H](N)[C@H](O)[C@H](C)O1 [DXR, doxorubicin]
[1]; high-dose DXR (3 μM)
  β-catenin binding of the Cd24 promoter region: partially reversed
[1]; low-dose DXR (30 nM)
  β-catenin binding of the Cd24 promoter region: essentially abolished
[2]
  concentration at which Akt:β-catenin interaction is inhibited: < 1 µM
[2]; versus vehicle treated cells
  FRET between EGFP-AKT and mCherry-β-catenin: decreased with increasing concentrations and exposure time
